“Also recorded” adds a separate entry of the source.
Tests used:
[1] = biological target: PI3K enzyme; settings: cited from earlier work
[2] = tested on: HepG2 cells; test: MTT assay, antiproliferative activity, HepG2; format: cell-based, human; settings: for IC50: Homo sapiens, HepG2, MTT, 24 h treatment, mean ± SD; for Selectivity Index (SI) HepG2: IC50 of healthy cells (NIH/3T3)/IC50 of cancer cells
Protocol: (§1) MCF-7 (human ER + breast cancer, HTB-22, USA), A549 (human nonsmall cell lung cancer, ATTC CRM-CCL-185, USA), HepG2 (human liver cancer, ATTC HB-8065, USA), and NIH/3T3 (mouse embryonic fibroblast, ATCC, CRL-1658, USA) cells were maintained in DMEM supplemented with 10% fetal bovine serum and 1% penicillin/streptomycin. The cells were maintained under appropriate conditions (37 °C, 5% CO2).
(§2) The antiproliferative activity of the newly synthesized compounds was measured using the MTT assay as described in a previous study. Briefly, cells were seeded at a density of 6 × 10^3 cells/well and incubated for 24 h in a 37 °C humidified incubator with 5% CO2. Afterwards, the cells were treated with increasing concentrations (1, 2.5, 5, 10, 25, 50, 75, and 100 μM) of compounds and incubated for another 24 h. Moreover, some cells were incubated with doxorubicin (1, 5, 10, 25, and 50 μM) for comparison, while other cells treated only with 1% DMSO was used as the solvent control. After incubation, 20 μL of MTT solution (5 mg/mL in PBS) was added to each well, and the plate was incubated for 4 h under the same conditions. Following this period, the medium was discarded and replaced with DMSO. The absorbance of dissolved formazan crystals was measured using a multiplate reader. The IC50 value and the selectivity index of each compound were calculated as previously described.
(§3) The antiproliferative effect of all newly synthesized thiazole-integrated pyrrolotriazinone derivatives were assessed against cancer cell lines (MCF-7, A549, and HepG2) as well as a healthy cell line (NIH/3T3) using the MTT assay. The IC50 values were determined through the nonlinear regression algorithm for log (inhibitor) versus normalized response-variable slope, as implemented in GraphPad [Y = 100/(1 + 10^X−LogIC50), where X represents the logarithm of the inhibitor concentration and Y denotes the response]. Additionally, Selectivity Indices (SI: IC50 of healthy cells/IC50 of cancer cells) were calculated.

[3] = tested on: PI3K; test: PI3K protein levels by ELISA in MCF-7 cells; format: cell-based, human; settings: IC50 concentration, 24 h, compared to 1% DMSO control
Protocol: (§4) The protein levels of PI3K in MCF-7 and HepG2 cells were assessed using enzyme-linked immunosorbent assay (ELISA) kits. […] After the incubation period, the medium was collected, and PI3K protein levels were measured using ELISA kits according to the manufacturer’s instructions (Cat no: ELK9879, ELK Biotechnology, Denver, USA).

[4] = tested on: NIH/3T3 cells; test: MTT assay, healthy cell line NIH/3T3; format: cell-based; settings: Mus musculus, NIH3T3, 24 h treatment, mean ± SD
Protocol: as §1, §2, §3

[5] = tested on: PI3K; test: PI3K protein levels by ELISA in HepG2 cells; format: cell-based, human; settings: IC50 concentration, 24 h, compared to 1% DMSO control
Protocol: as §4

[6] = tested on: MCF-7 cells; test: MTT assay, antiproliferative activity, MCF-7; format: cell-based, human; settings: for IC50: Homo sapiens, MCF7, MTT, 24 h treatment, mean ± SD; for Selectivity Index (SI) MCF-7: IC50 of healthy cells (NIH/3T3)/IC50 of cancer cells
Protocol: as §1, §2, §3

[7] = tested on: A549 cells; test: MTT assay, antiproliferative activity, A549; format: cell-based, human; settings: for IC50: Homo sapiens, A549, MTT, 24 h treatment, mean ± SD; for Selectivity Index (SI) A549: IC50 of healthy cells (NIH/3T3)/IC50 of cancer cells
Protocol: as §1, §2, §3

| IC50 [2] [µM] | IC50 [6] [µM] | IC50 [7] [µM] | SMILES | IC50 [1] [µM] | Selectivity Index (SI) HepG2 [2] | PI3K protein levels in MCF-7 cells [3] | IC50 [4] [µM] | PI3K protein levels in HepG2 cells [5] | Selectivity Index (SI) MCF-7 [6] | Selectivity Index (SI) A549 [7] |
| --- | --- | --- | --- | --- | --- | --- | --- | --- | --- | --- |
|  |  |  | Cc1ccn2nc(C(C)n3cnc4c(N)ncnc43)n(-c3ccccc3)c(=O)c12 (stereo not drawn) [Compound 6] | 0.075 |  |  |  |  |  |  |
|  |  |  | Cc1ccccc1-n1c(Cn2cnc3c(N)ncnc32)nn2ccc(C)c2c1=O [Compound 5] | 0.11 |  |  |  |  |  |  |
| 7.21 | 8.1 ± 0.17 | 38.7 ± 0.4 | O=c1n(-c2nc(-c3ccc(Cl)c(Cl)c3)cs2)ncc2cccn12 [Compound 25, 3-(4-(3,4-dichlorophenyl)thiazol-2-yl)pyrrolo[1,2-d][1,2,4]triazin-4(3H)-one] |  | 15.20 | significantly reduced; also recorded: significant reduction in PI3K protein levels | > 100 | markedly diminished; also recorded: significant reduction in PI3K protein levels | 13.60 | 2.84 |
| 10.2 ± 0.95 | 11.2 ± 0.12 | 39.2 ± 1.41 | O=c1n(-c2nc(-c3ccc(Cl)cc3)cs2)ncc2cccn12 [Compound 21, 3-(4-(4-chlorophenyl)thiazol-2-yl)pyrrolo[1,2-d][1,2,4]triazin-4(3H)-one] |  | 10.40 | significantly reduced; also recorded: did reduce PI3K levels | > 100 | did not alter PI3K levels | 9.51 | 2.72 |
|  |  |  | Cc1ccccc1-n1c(Cn2cnc3c(N)ncnc32)nc2cccc(C)c2c1=O [IC87114] | 0.13 |  |  |  |  |  |  |

— paper PMC12068666, “Synthesis of thiazole-integrated pyrrolotriazinones: evaluations of cytotoxicity and effects on PI3K levels in cancer cells” (Turkish Journal of Chemistry, 2025)
